Measured values reported in patent US20150250166A1, “NOOTKATONE AS AN INSECTICIDE AND INSECT REPELLENT” (ALLYLIX, INC., priority 2012, published 2015).

Test system: adult cat fleas (Ctenocephalides felis)
Test: Direct spray knockdown of adult cat fleas
Type: in vivo
Details: 10% nootkatone; for cat fleas knocked down, average count of 5 trials (of 10): 0.1% BHT in isopropanol
Description: A direct spray formulation, containing 10% nootkatone, 0.1% butylated hydroxytoluene (BHT) in isopropanol, stored at ambient temperature and humidity, was tested for efficacy for knockdown and mortality among adult cat fleas (Ctenocephalides felis). Five replicates of 10 adult cat fleas (El Labs Inc (Soquel, Calif.)) were emptied from 9 dram vials into 5 gallon HDPE Payliner® pail liners lined with paper towels. Each replicate was sprayed manually with 1 gram±0.1 grams of the 10% nootkatone formulation from the rim of the pail liner. The spray bottle was weighed before and after treating each replicate to confirm the weight of the test sample dispensed. Five control replicates of 10 adult cat fleas were treated with isopropyl alcohol, following the same protocol. The study provided a single treatment of 10% nootkatone formulation or isopropyl alcohol. All spraying took place in a vented, stainless steel Peet Grady chamber (6×6×6 ft).
The average weight of isopropanol and 10% nootkatone formulation applied to the five replicates was 1.0 g and 1.07 g, respectively. […] Knockdown was defined as the failure of the cat flea to jump even following exhalation of a technician into the pail liner.

C=C(C)[C@@H]1CCC2=CC(=O)C[C@@H](C)[C@]2(C)C1 [nootkatone, 4,4a,5,6,7,8-hexahydro-6-isopropenyl-4,4a-dimethyl-2(3H)-naphtalenone]
cat flea knockdown efficacy, in words: not effective in knocking down cat fleas
cat fleas knocked down, average count of 5 trials (of 10) (0.5 min): 0.2
cat fleas knocked down, average count of 5 trials (of 10) (1 min): 0.2
cat fleas knocked down, average count of 5 trials (of 10) (2 min): 0.4
cat fleas knocked down, average count of 5 trials (of 10) (3 min): 0
cat fleas knocked down, average count of 5 trials (of 10) (4 min): 0.2
cat fleas knocked down, average count of 5 trials (of 10) (5 min): 0.4
cat fleas knocked down, average count of 5 trials (of 10) (15 min): 0
fleas knocked down, in words (15 minutes): no fleas were knocked down
fleas knocked down (within the first 5 minutes): no more than 4%
